From article PMC4199533, “Toxicological and biochemical characterizations of AChE in phosalone-susceptible and resistant populations of the common pistachio psyllid, Agonoscena pistaciae” (Journal of Insect Science, 2014)
Read-outs that look alike come from different tables or passages of the source.

Key:
[1] = system: T1, AChE (Bam population, susceptible); test: Ellman microplate kinetics, Michaelis-Menten fit; format: biochemical, Agonoscena pistaciae; conditions: DTNB; pH 7.0; 37°C; 405 nm; apparent, total AChE
T1 construct: gene AChE1
Text: Ellman microplate kinetics, Michaelis-Menten fit on AChE (Bam population, susceptible)

[2] = system: T1, AChE (Bam population, susceptible); test: Ellman microplate inhibition assay; format: biochemical, Agonoscena pistaciae; conditions: pH 7.0; 10 min preincubation at room temperature; thiocholine substrate and DTNB; covalent; read-out: I50
Text: Ellman microplate inhibition assay on AChE (Bam population, susceptible)

[3] = system: T2, AChE (Rafsanjan population, resistant; modified AChE); conditions: read-out: I50, pH 7.0, 10 min preincubation at room temperature, thiocholine substrate and DTNB, covalent
T2 construct: gene AChE1
Text: Ellman microplate inhibition assay on AChE (Rafsanjan population, resistant; modified AChE)

[4] = system: T2, AChE (Rafsanjan population, resistant; modified AChE); conditions: DTNB; pH 7.0; 37°C; 405 nm; apparent, total AChE
Text: Ellman microplate kinetics, Michaelis-Menten fit on AChE (Rafsanjan population, resistant; modified AChE)

Row | SMILES | Km [1] [µM] | IC50 [2] [µM] | IC50 [3] [µM] | Km [4] [µM] | IC50 ([3]; stated gain) [µM]
1 | CC(=O)SCC[N+](C)(C)C [ATC, acetylthiocholine iodide] | 1.25 ± 0.05 | – | – | – | –
2 | CCCC(=O)SCC[N+](C)(C)C [BTC, butyrylthiocholine iodide] | 4.3 ± 0.14 | – | – | – | –
3 | CNC(=O)Oc1cccc(C)c1 [MTMC, m-tolyl methyl carbamate] | – | 20430 ± 170 | 9450 ± 30 | – | –
4 | CCC(=O)SCC[N+](C)(C)C [PTC, propionylthiocholine iodide] | 1.4 ± 0.11 | – | – | 4.1 ± 0.06 | –
5 | CNC(=O)O/N=C/C(C)(C)SC [aldicarb] | – | 2590 ± 20 | 2850 ± 60 | – | –
6 | CNC(=O)Oc1cccc2ccccc12 [carbaryl] | – | 2360 ± 20 | 2050 ± 30 | – | –
7 | CNC(=O)Oc1cccc2c1OC(C)(C)C2 [carbofuran] | – | 380 ± 10 | 160 ± 10 | – | –
9 | CNC(=O)/C=C(\C)OP(=O)(OC)OC [monocrotophos] | – | 230 ± 10 | – | – | 5280 ± 40
10 | CCN(CC)C(=O)C(Cl)=C(C)OP(=O)(OC)OC [phosphamidon] | – | 220 ± 10 | – | – | 4790 ± 20
11 | CNC(=O)Oc1ccccc1OC(C)C [propoxur] | – | 1060 ± 30 | 830 ± 10 | – | –
